{"source": "patent US20090292025A1", "about": "“Novel crystalline forms of armodafinil and preparation thereof” (Teva Pharmaceutical Industries Ltd., priority 2006, published 2009)", "key": {"[1]": {"conditions": "Prisinzano et al., Tetrahedron: Asymmetry (2004); cited from earlier work"}, "[2]": {"assay": "Exposure to 100% relative humidity, followed by TGA and XRD", "assay_type": "physicochemical", "experimental": "Another embodiment of the invention encompasses armodafinil monohydrate. Armodafinil monohydrate may be prepared by a method comprising exposing armodafinil Form 1 to 100% relative humidity at a temperature of about 30° C. to about 60° C. for at least 7 days. Preferably, the heating is to a temperature of about 30° C. to about 40° C. In one example 200 mg of armodafinil Form I is heated at 30° C. in 100% relative humidity for 13 days.\nX-Ray powder diffraction data were obtained by using methods known in the art. A SCINTAG powder X-ray diffractometer model X′TRA equipped with a solid-state detector was employed with copper radiation of 1.5418 Å and a round aluminum sample holder with zero background. The scanning parameters included: range: 2-40 degrees two-theta; scan mode: continuous scan; step size: 0.05 deg.; and a rate of 5 deg/min. All peak positions are within ±0.2 degrees two theta.\nTGA analysis was performed using a Metler M3 thermo gravimeter. Samples of about 8 mg were analyzed in standard 150 μl alumina crucibles covered by lids with 1 hole. Each sample was scanned at a rate of 10° C./min from 25° C. to 200° C. A blank was subtracted from the sample. The oven was constantly purged with nitrogen gas at a flow rate of 40 ml/min.\nArmodafinil Form A (200 mg) was exposed to 100% humidity for 7 days at 30° C. The XRD diffractogram of armodafinil Form I is illustrated in FIG. 3."}, "[3]": {"assay": "Stability of the crystal form under pressure of 2-10 tons (tablet compression)", "assay_type": "physicochemical", "experimental": "Form A is stable by pressure of about 2-10 tons which is used in the compression stage during the tablet preparation.\nA further method of preparing armodafinil Form I comprises submitting armodafinil Form IV to a pressure of about 2 tons to about 10 tons to obtain armodafinil Form I. Preferably, the pressure is applied for a period of about 1 minute to about 5 minutes. The time will depend upon the amount of armodafinil Form IV; for example, armodafinil 100 mg of Form IV is pressed with 10 tons for 1 minute.\nArmodafinil Form IV (100 mg) was pressed with pressure of 2 tons or 10 tons for 1 min forming a pressed sample."}, "[4]": {"assay": "Heating at 145° C., XRD of the heated sample", "assay_type": "physicochemical", "conditions": "200 mg heated at 145° C. for 10 min", "experimental": "Armodafinil Form I may also be prepared by drying armodafinil Form IV. Preferably, the process comprises heating armodafinil Form IV to a temperature of about 120° C. to 150° C. for at least about 10 minutes. Preferably, the heating is to a temperature of about 145° C. Preferably, the heating is conducted over a period of about 15 minutes about 30 minutes. For example, armodafinil Form IV 200 mg is heated for about 10 minutes. Form IV may be prepared according to WO 2004/060858.\nArmodafinil Form IV (200 mg) was heated at 145° C. for 10 min forming a heated sample."}, "[5]": {"assay": "Grinding with mortar and pestle, XRD of the ground sample", "assay_type": "physicochemical", "conditions": "100 mg ground with mortar and pestle for a few minutes", "experimental": "Another method for preparing armodafinil Form I comprises grinding armodafinil Form IV. Preferably, the grinding is carried out over a period of about 1 minute to about 5 minutes, more preferably, about 1 min. Depending on the amount of armodafinil Form IV, different grinding methods may be used. For example, 200 mg of armodafinil Form IV is ground with a mortar and pestle for 1 minute.\nArmodafinil Form IV (100 mg) was ground with mortar and pestle for a few minutes forming a ground sample."}, "[6]": {"conditions": "Form A exposed to 100% humidity for 7 days at 30° C."}, "[7]": {"conditions": "Form A, Initial (before exposure)"}, "[8]": {"conditions": "Form I exposed to 100% Relative Humidity at 30° C. for 13 days"}, "[9]": {"conditions": "Form I exposed to 100% Relative Humidity at 60° C. for 13 days"}, "[10]": {"conditions": "Form I, Initial (Table 1, 30° C. study)"}, "[11]": {"conditions": "Form I, Initial (Table 2, 60° C. study)"}}}
{"compound": "NC(=O)C[S@@+]([O-])C(c1ccccc1)c1ccccc1", "note": "(single isomer, unassigned) [S enantiomer]", "values": [{"measurement": "Elimination from the body compared with the R enantiomer", "setting": "[1]", "value": "three times faster"}]}
{"compound": "NC(=O)C[S@@+]([O-])C(c1ccccc1)c1ccccc1", "note": "[Armodafinil Form A, 2-[(R)-(diphenylmethyl)sulfinyl]acetamide]", "values": [{"measurement": "% Weight loss (by TGA)", "setting": "[2]; [6]", "value": 3.5, "unit": "%"}, {"measurement": "Crystal form (by XRD)", "setting": "[2]; [6]", "value": "Form I"}, {"measurement": "% Weight loss (by TGA)", "setting": "[2]; [7]", "value": 0.3, "unit": "%"}, {"measurement": "Crystal form (by XRD)", "setting": "[2]; [7]", "value": "Form A"}, {"measurement": "Stability by pressure", "setting": "[3]; pressure of about 2-10 tons, as used in the compression stage of tablet preparation", "value": "stable"}]}
{"compound": "NC(=O)C[S@@+]([O-])C(c1ccccc1)c1ccccc1", "note": "[Armodafinil Form IV, 2-[(R)-(diphenylmethyl)sulfinyl]acetamide]", "values": [{"measurement": "Crystal form (by XRD) of heated sample", "setting": "[4]", "value": "Form I"}, {"measurement": "Crystal form (by XRD) of pressed sample", "setting": "[3]; 100 mg pressed with 2 tons or 10 tons for 1 min", "value": "Form I"}, {"measurement": "Crystal form (by XRD) of ground sample", "setting": "[5]", "value": "Form I"}]}
{"compound": "NC(=O)C[S@@+]([O-])C(c1ccccc1)c1ccccc1", "note": "[armodafinil Form I, 2-[(R)-(diphenylmethyl)sulfinyl]acetamide]", "values": [{"measurement": "% Weight loss (by TGA)", "setting": "[2]; [8]", "value": 5.6, "unit": "%"}, {"measurement": "Crystal form (by XRD)", "setting": "[2]; [8]", "value": "Form I"}, {"measurement": "% Weight loss (by TGA)", "setting": "[2]; [9]", "value": 7.4, "unit": "%"}, {"measurement": "Crystal form (by XRD)", "setting": "[2]; [9]", "value": "Form I"}, {"measurement": "% Weight loss (by TGA)", "setting": "[2]; [10]", "value": 0.1, "unit": "%"}, {"measurement": "Crystal form (by XRD)", "setting": "[2]; [10]", "value": "Form I"}, {"measurement": "% Weight loss (by TGA)", "setting": "[2]; [11]", "value": 0.1, "unit": "%"}, {"measurement": "Crystal form (by XRD)", "setting": "[2]; [11]", "value": "Form I"}]}
